Results reported in publication PMC11860126, “X-Ray Irradiation Induces Oxidative Stress and Upregulates Intestinal Nrf2-Mrp2 Pathway, Leading to Decreased Intestinal Absorption of Valsartan” (Pharmaceutics, 2025).
Like-named read-outs stand apart in the source and are kept apart here.

What was measured:
[1] = VAL urinary and fecal excretion assay (metabolic cages); details: rats, 10 mg/kg by gavage
Protocol: Male Sprague Dawley (SD) rats (weight 200 ± 20 g) were purchased from Beijing Vital River Laboratory Animal Co., LTD. […] The rats were fed a maintenance diet and had free access to water. All rats were adaptively fed for three days before the experiment and randomly divided into a control group (A) and irradiation group (B). There were 6 rats in group A and B in each study. […] The samples collected were processed and then stored at −80 °C until analysis.
For the VAL urinary and fecal excretion assay, six rats in each group, A and B, were randomly assigned to metabolic cages and administered valsartan (10 mg/kg) via gavage. […] The resulting supernatant was collected as the analytical samples.
The excretion of valsartan was calculated by the concentration and sample volume (or weight), and the fractional excretion of valsartan and the cumulative excretion fraction of valsartan in each time period were obtained through comparison with the corresponding dose administered to the rat.

[2] = In vivo pharmacokinetics of valsartan in rat plasma, with or without abdominal X-ray irradiation; parameters: species or system Sprague Dawley (SD) rats; details: for AUC(0-inf) / Cmax / AUC(0-t) / MRT last / Tmax / half-life: male, Sprague-Dawley, rat, plasma, po, 10 mg/kg; for AUC(0-t): read-out: AUC0–24h; for MRT last: read-out: MRT0–24h; for half-life / t1/2: valsartan 10 mg/kg by gavage, Mean ± SD, n = 6
Protocol: Valsartan was administered by gavage (10 mg/kg) after forming a homogeneous suspension (2 mg/mL) with 1% CMC-Na by grinding and stirring. Before and after administration (0.083, 0.25, 0.5, 1, 2, 4, 6, 8, 12, and 24 h), the rats in group A (n = 6) and group B (n = 6) were anesthetized with isoflurane. Blood samples were collected by the orbital blood sampling method, and whole blood was collected by blood collection tubes coated with heparin sodium. Plasma samples were obtained by centrifugation at 16,260× g for 10 min. Quantitative analysis of LC-MS/MS results was performed using Analyst 1.6.3 program. The pharmacokinetic parameters were calculated using the WinNonlin 8.3 program. SPSS Statistic 20.0 software was used for statistical analysis. One-way ANOVA was used for comparison among multiple groups, and p < 0.05 was considered statistically significant. GraphPad Prism 8.0.2 software was used for generating figures.

[3] = VAL bile secretion assay in bile duct cannulated rats; format: in vivo, Sprague Dawley (SD) rats; details: 10 mg/kg by gavage
From the text: For the VAL bile secretion assay, six rats in each group, A and B, underwent bile duct cannulation prior to administration. After anesthesia, the abdominal cavity of the rats was opened, followed by separation and ligation of the distal end of the common bile duct. A small opening was made at the front end of the ligation to insert a catheter, which was then ligated and fixed before suturing the abdominal cavity. Bile was collected through a catheter. The rats were maintained under anesthesia with intraperitoneal injection of normal saline and glucose to ensure stable vital signs. Following surgery, valsartan (10 mg/kg) was administered via gavage, and bile samples were collected at different time points post-administration. The collected bile samples were mixed with 50% methanol–water (ratio 1:9), centrifuged to obtain the supernatant for analysis.

[4] = Ex vivo inverted intestinal sac absorption study; format: in vitro ADME, Sprague Dawley (SD) rats; details: for concentration of valsartan in the intestinal sac at the final time point: KRB buffer 37 °C containing 10 mM VAL, n = 6
Protocol: Six rats in groups A and B were anesthetized with isoflurane, followed by the opening of the abdominal cavity to separate a 10 cm segment of the jejunum. The distal end of the jejunal segment was ligated in Krebs–Ringer Solution (KRB), and the resulting intestinal sac was turned inside out from the proximal end to form an inverted intestinal sac. Subsequently, 1 mL of KRB buffer at 37 °C was added to the inverted intestinal sac, which was then equilibrated in oxygen-saturated KRB buffer (37 °C) for 5 min. The flipped intestinal sac was transferred to oxygen-saturated KRB buffer (37 °C) containing 10 mM VAL, initiating the timing process. At different time points, 50 μL of solution from the flipped intestinal sac was aspirated and supplemented with an equal volume (50 μL) of blank KRB buffer.

[5] = parameters: method as in PMID 28507434; details: cited from earlier work
[6] = cited from earlier work
[7] = parameters: method as in PMID 28438473, PMID 22204725, PMID 27749456; details: clinical studies; cited from earlier work
[8] = 10 mg/kg by gavage, Control group
[9] = IR-5 Gy vs control, 10 mg/kg by gavage, p < 0.05
[10] = IR-5 Gy (abdominal X-ray 24 h before)

CCCCC(=O)N(Cc1ccc(-c2ccccc2-c2nnn[nH]2)cc1)[C@H](C(=O)O)C(C)C [valsartan, Valsartan]
amount excreted in the urine ([1]; Figure 2D): very small amount
cumulative excretion in feces ([1]; group not stated): 83%
CL [2, 8]: 20 ± 5.87 mL/min/kg
Vd [2, 8]: 6.254 ± 2.349 L/kg
CL ([2]; 10 mg/kg by gavage, IR-5 Gy): 35.33 ± 18.5 mL/min/kg
Vd ([2]; 10 mg/kg by gavage, IR-5 Gy): 14.668 ± 9.456 L/kg
prolongation of plasma half-life (t1/2) in the IR group ([2]; IR-5 Gy vs control, 10 mg/kg by gavage): 41%
decrease of AUC0–24h in the IR group [2, 9]: 37%
decrease of Cmax in the IR group [2, 9]: 52%
AUC(0-inf) [2, 8]: 8810 ± 2010 ng·h/mL
Cmax [2, 8]: 4430 ± 1260 ng/mL
AUC(0-t) [2, 8]: 8460 ± 1840 ng·h/mL
MRT last [2, 8]: 3.84 ± 0.724 h
Tmax ([2]; 10 mg/kg by gavage, Control group, read-out: Tmax): 0.25 h
Tmax ([2]; 10 mg/kg by gavage, Figure 1, read-out: time of peak plasma concentration): ~0.25 h
AUC(0-inf) ([2]; 10 mg/kg by gavage, IR-5 Gy): 5470 ± 1790 ng·h/mL
Cmax ([2]; 10 mg/kg by gavage, IR-5 Gy): 2130 ± 878 ng/mL
AUC(0-t) ([2]; 10 mg/kg by gavage, IR-5 Gy): 5270 ± 1830 ng·h/mL
MRT last ([2]; 10 mg/kg by gavage, IR-5 Gy): 4.52 ± 1.63 h
Tmax ([2]; 10 mg/kg by gavage, IR-5 Gy, read-out: Tmax): 0.222 ± 0.068 h
half-life ([2]; Control group): 3.57 h
half-life [2, 10]: 5.03 h
t1/2 ([2]; Control group): 3.568 ± 0.411 h
t1/2 [2, 10]: 5.032 ± 2.656 h
cumulative fractional bile excretion ([3]; IR group, 15 h): 10.83 % of the dose
cumulative fractional bile excretion ([3]; IR group, 18 h): 11.52 % of the dose
cumulative fractional bile excretion ([3]; IR group, 24 h): 12.67 % of the dose
cumulative fractional bile excretion ([3]; control group, 15 h): 22.89 % of the dose
cumulative fractional bile excretion ([3]; control group, 18 h): 26.24 % of the dose
cumulative fractional bile excretion ([3]; control group, 24 h): 31.26 % of the dose
concentration of valsartan in the intestinal sac at the final time point ([4]; IR group): 127 ± 32.94 ng/mL
concentration of valsartan in the intestinal sac at the final time point ([4]; control group): 205.6 ± 51.72 ng/mL
reduction of valsartan concentration in the intestinal sac, IR vs control ([4]; final time point): 38%
bioavailability [5]: 23%
fraction absorbed into the liver, secreted into the bile and passed into the feces along with unabsorbed valsartan [6]: > 80%

bevacizumab
incidence of hypertension associated with treatment [7]: 26% to 55
